Laboratory results published in PubChem BioAssay (NCI).
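Briefly, cells in 96-well plates were exposed to five compound concentrations for 48 h, and endpoints were estimated by linear interpolation. GI50 = concentration required for 50% inhibition of growth. TGI is the concentration that stops growth completely.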

Legend:
Assay in all cases: DTP human tumour cell line panel, 48 h
786-0 renal = test system: 786-0 renal
A498 renal = test system: A498 renal
A549 NSCLC = test system: A549 NSCLC
ACHN renal = test system: ACHN renal
BT-549 breast = test system: BT-549 breast
CAKI-1 renal = test system: CAKI-1 renal
CCRF-CEM leukemia = test system: CCRF-CEM leukemia
COLO 205 colon = test system: COLO 205 colon
DU-145 prostate = test system: DU-145 prostate
EKVX NSCLC = test system: EKVX NSCLC
HCC-2998 colon = test system: HCC-2998 colon
HCT-116 colon = test system: HCT-116 colon
HCT-15 colon = test system: HCT-15 colon
HL-60(TB) leukemia = test system: HL-60(TB) leukemia
HOP-62 NSCLC = test system: HOP-62 NSCLC
HOP-92 NSCLC = test system: HOP-92 NSCLC
HS 578T breast = test system: HS 578T breast
HT29 colon = test system: HT29 colon
IGROV1 ovarian = test system: IGROV1 ovarian
K-562 leukemia = test system: K-562 leukemia
KM12 colon = test system: KM12 colon
LOX IMVI melanoma = test system: LOX IMVI melanoma
M14 melanoma = test system: M14 melanoma
MALME-3M melanoma = test system: MALME-3M melanoma
MCF7 breast = test system: MCF7 breast
MDA-MB-231 breast = test system: MDA-MB-231 breast
MDA-MB-435 = test system: MDA-MB-435
MOLT-4 leukemia = test system: MOLT-4 leukemia
NCI-H226 lung = test system: NCI-H226 lung
NCI-H23 lung = test system: NCI-H23 lung
NCI-H460 lung = test system: NCI-H460 lung
NCI-H522 lung = test system: NCI-H522 lung
NCI/ADR-RES ovarian = test system: NCI/ADR-RES ovarian
OVCAR-3 ovarian = test system: OVCAR-3 ovarian
OVCAR-4 ovarian = test system: OVCAR-4 ovarian
OVCAR-5 ovarian = test system: OVCAR-5 ovarian
OVCAR-8 ovarian = test system: OVCAR-8 ovarian
PC-3 prostate = test system: PC-3 prostate
RPMI-8226 leukemia = test system: RPMI-8226 leukemia
RXF 393 renal = test system: RXF 393 renal
SF-268 CNS = test system: SF-268 CNS
SF-295 CNS = test system: SF-295 CNS
SF-539 CNS = test system: SF-539 CNS
SK-MEL-2 melanoma = test system: SK-MEL-2 melanoma
SK-MEL-28 melanoma = test system: SK-MEL-28 melanoma
SK-MEL-5 melanoma = test system: SK-MEL-5 melanoma
SK-OV-3 ovarian = test system: SK-OV-3 ovarian
SN12C renal = test system: SN12C renal
SNB-19 CNS = test system: SNB-19 CNS
SNB-75 CNS = test system: SNB-75 CNS
SR leukemia = test system: SR leukemia
SW-620 colon = test system: SW-620 colon
T-47D breast = test system: T-47D breast
TK-10 renal = test system: TK-10 renal
U251 CNS = test system: U251 CNS
UACC-257 melanoma = test system: UACC-257 melanoma
UACC-62 melanoma = test system: UACC-62 melanoma
UO-31 renal = test system: UO-31 renal

COc1cc(/C=N/Nc2ncnc3[nH]ncc23)ccc1O
GI50 (786-0 renal): 11.8 µM | TGI (786-0 renal): > 25 µM | GI50 (A498 renal): 8.93 µM | TGI (A498 renal): > 25 µM | GI50 (A549 NSCLC): > 25 µM | TGI (A549 NSCLC): > 25 µM | GI50 (ACHN renal): 8.01 µM | TGI (ACHN renal): > 25 µM | GI50 (BT-549 breast): > 23.6 µM | TGI (BT-549 breast): > 25 µM | GI50 (CAKI-1 renal): 6.93 µM | TGI (CAKI-1 renal): > 25 µM | GI50 (CCRF-CEM leukemia): 14.8 µM | TGI (CCRF-CEM leukemia): > 25 µM | GI50 (COLO 205 colon): > 25 µM | TGI (COLO 205 colon): > 25 µM | GI50 (DU-145 prostate): > 23.9 µM | TGI (DU-145 prostate): > 25 µM | GI50 (EKVX NSCLC): > 23.2 µM | TGI (EKVX NSCLC): > 25 µM | GI50 (HCC-2998 colon): > 25 µM | TGI (HCC-2998 colon): > 25 µM | GI50 (HCT-116 colon): 19.6 µM | TGI (HCT-116 colon): > 25 µM | GI50 (HCT-15 colon): 24.6 µM | TGI (HCT-15 colon): > 25 µM | GI50 (HL-60(TB) leukemia): > 23.6 µM | TGI (HL-60(TB) leukemia): > 25 µM | GI50 (HOP-62 NSCLC): 19.8 µM | TGI (HOP-62 NSCLC): > 25 µM | GI50 (HOP-92 NSCLC): 6.77 µM | TGI (HOP-92 NSCLC): > 22.1 µM | GI50 (HS 578T breast): 6.53 µM | TGI (HS 578T breast): > 20.5 µM | GI50 (HT29 colon): 12.6 µM | TGI (HT29 colon): > 25 µM | GI50 (IGROV1 ovarian): 8.97 µM | TGI (IGROV1 ovarian): > 25 µM | GI50 (K-562 leukemia): 9.94 µM | TGI (K-562 leukemia): > 25 µM | GI50 (KM12 colon): 12.6 µM | TGI (KM12 colon): > 25 µM | GI50 (LOX IMVI melanoma): 9.26 µM | TGI (LOX IMVI melanoma): > 25 µM | GI50 (M14 melanoma): 15.7 µM | TGI (M14 melanoma): > 25 µM | GI50 (MALME-3M melanoma): 11.7 µM | TGI (MALME-3M melanoma): > 25 µM | GI50 (MCF7 breast): 11.4 µM | TGI (MCF7 breast): > 25 µM | GI50 (MDA-MB-231 breast): > 20.1 µM | TGI (MDA-MB-231 breast): > 25 µM | GI50 (MDA-MB-435): 7.95 µM | TGI (MDA-MB-435): > 25 µM | GI50 (MOLT-4 leukemia): 12.4 µM | TGI (MOLT-4 leukemia): > 25 µM | GI50 (NCI-H226 lung): > 25 µM | TGI (NCI-H226 lung): > 25 µM | GI50 (NCI-H23 lung): > 21.7 µM | TGI (NCI-H23 lung): > 25 µM | GI50 (NCI-H460 lung): 24.7 µM | TGI (NCI-H460 lung): > 25 µM | GI50 (NCI-H522 lung): 11 µM | TGI (NCI-H522 lung): > 25 µM | GI50 (NCI/ADR-RES ovarian): > 25 µM | TGI (NCI/ADR-RES ovarian): > 25 µM | GI50 (OVCAR-3 ovarian): > 22.7 µM | TGI (OVCAR-3 ovarian): > 25 µM | GI50 (OVCAR-4 ovarian): > 25 µM | TGI (OVCAR-4 ovarian): > 25 µM | GI50 (OVCAR-5 ovarian): > 19.4 µM | TGI (OVCAR-5 ovarian): > 25 µM | GI50 (OVCAR-8 ovarian): > 25 µM | TGI (OVCAR-8 ovarian): > 25 µM | GI50 (PC-3 prostate): > 20.6 µM | TGI (PC-3 prostate): > 25 µM | GI50 (RPMI-8226 leukemia): > 25 µM | TGI (RPMI-8226 leukemia): > 25 µM | GI50 (RXF 393 renal): 5.24 µM | TGI (RXF 393 renal): > 18.9 µM | GI50 (SF-268 CNS): 21.4 µM | TGI (SF-268 CNS): > 25 µM | GI50 (SF-295 CNS): 18.6 µM | TGI (SF-295 CNS): > 25 µM | GI50 (SF-539 CNS): 7.78 µM | TGI (SF-539 CNS): > 21.8 µM | GI50 (SK-MEL-2 melanoma): 6.53 µM | TGI (SK-MEL-2 melanoma): 17.1 µM | GI50 (SK-MEL-28 melanoma): > 20.1 µM | TGI (SK-MEL-28 melanoma): > 25 µM | GI50 (SK-MEL-5 melanoma): 17.5 µM | TGI (SK-MEL-5 melanoma): > 25 µM | GI50 (SK-OV-3 ovarian): 17.9 µM | TGI (SK-OV-3 ovarian): > 25 µM | GI50 (SN12C renal): 13.6 µM | TGI (SN12C renal): > 25 µM | GI50 (SNB-19 CNS): > 25 µM | TGI (SNB-19 CNS): > 25 µM | GI50 (SNB-75 CNS): 4.83 µM | TGI (SNB-75 CNS): > 16.6 µM | GI50 (SR leukemia): 13.1 µM | TGI (SR leukemia): > 25 µM | GI50 (SW-620 colon): > 25 µM | TGI (SW-620 colon): > 25 µM | GI50 (T-47D breast): 6.82 µM | TGI (T-47D breast): > 25 µM | GI50 (TK-10 renal): 9.15 µM | TGI (TK-10 renal): > 22.1 µM | GI50 (U251 CNS): 24.7 µM | TGI (U251 CNS): > 25 µM | GI50 (UACC-257 melanoma): > 21.8 µM | TGI (UACC-257 melanoma): > 25 µM | GI50 (UACC-62 melanoma): 11.3 µM | TGI (UACC-62 melanoma): > 25 µM | GI50 (UO-31 renal): 5.96 µM | TGI (UO-31 renal): > 25 µM
